Assay results as given in patent US11357779B2 (G1 Therapeutics, Inc., priority 2018, dated 2022).
Like-named read-outs stand apart in the source and are kept apart here.

Assay: Noncompartmental pharmacokinetic parameters (Cmax, Tmax, AUC, Racc) in QD and BID cohorts of Form B
Assay type: in vivo, human
Conditions: human, plasma, oral
Procedure: Analysis of plasma concentration versus time data for calculation of standard pharmacokinetic (PK) parameters following oral administration was conducted using Phoenix WinNonlin version 6.3 using actual blood sampling times.
The following pharmacokinetic parameters were calculated from the concentration versus time data obtained in Example 1 for each of the above QD (200 mg, 300 mg, 400 mg, 500 mg, or 650 mg dosed) and BID (100 mg, 150 mg, or 200 mg doses) Form B of Compound II dosage cohorts: • Cmax—the observed peak plasma concentration determined from the plasma concentration versus time data obtained on Day 1 and Day 29, as applicable; • Tmax—the time to reach the observed peak plasma concentration from the plasma concentration versus time data obtained on Day 1 and Day 29, as applicable; • AUC—area under the plasma concentration versus time curve during a dosing interval on Day 1 and Day 29, as applicable; and • Racc—accumulation ratio calculated as AUCDay 29/AUCDay 1.

Compound `CC(C)N1CCN(c2ccc(Nc3ncc4cc5n(c4n3)C3(CCCCC3)CNC5=O)nc2)CC1` [Compound I, 2′-((5-(4-isopropylpiperazin-1-yl)pyridin-2-yl)amino)-7′,8′-dihydro-6′H-spiro[cyclohexane-1,9′-pyrazino[1′,2′:1,5]pyrrolo[2,3-d]pyrimidin]-6′-one] has a Cmax (300 mg, Cohort 2, 300 mg QD of Form B, Day 1, upon exclusion of data for patient that vomited immediately after dosing, read-out: Cmax, Mean) of 55.2 ng/mL, an AUC(0-t) (300 mg, Cohort 2, 300 mg QD of Form B, Day 1, read-out: AUClast, Mean) of 413 ng·h/mL and an AUC(0-t) (300 mg, Cohort 2, 300 mg QD of Form B, Day 1, read-out: AUClast, Median) of 554 ng·h/mL. For the same compound, the Cmax (300 mg, Cohort 2, 300 mg QD of Form B, Day 1, read-out: Cmax, Mean) was 40.2 ng/mL, the Cmax (300 mg, Cohort 2, 300 mg QD of Form B, Day 1, read-out: Cmax, Median) was 44.3 ng/mL and the Tmax (300 mg, Cohort 2, 300 mg QD of Form B, Day 1, read-out: Tmax, Mean) was 4.67 h. For the same compound, the Tmax (300 mg, Cohort 2, 300 mg QD of Form B, Day 1, read-out: Tmax, Median) was 4 h, the AUC(0-t) (300 mg, Compound I, 300 mg QD of Form B, Cohort 2, Day 29, read-out: AUClast (Mean)) was 592 ng·h/mL and the AUC(0-t) (300 mg, Compound I, 300 mg QD of Form B, Cohort 2, Day 29, read-out: AUClast (Median)) was 604 ng·h/mL. The Cmax (300 mg, Compound I, 300 mg QD of Form B, Cohort 2, Day 29, read-out: Cmax (Mean)) was 47 ng/mL, the Cmax (300 mg, Compound I, 300 mg QD of Form B, Cohort 2, Day 29, read-out: Cmax (Median)) was 40.5 ng/mL and the Tmax (300 mg, Compound I, 300 mg QD of Form B, Cohort 2, Day 29, read-out: Tmax (Mean)) was 6 h. For the same compound, the Tmax (300 mg, Compound I, 300 mg QD of Form B, Cohort 2, Day 29, read-out: Tmax (Median)) was 4 h, the AUC(0-t) (400 mg, Cohort 3, 400 mg QD of Form B, Day 1, read-out: AUClast, Mean) was 202 ng·h/mL and the AUC(0-t) (400 mg, Cohort 3, 400 mg QD of Form B, Day 1, read-out: AUClast, Median) was 183 ng·h/mL. The Cmax (400 mg, Cohort 3, 400 mg QD of Form B, Day 1, read-out: Cmax, Mean) was 20.1 ng/mL, the Cmax (400 mg, Cohort 3, 400 mg QD of Form B, Day 1, read-out: Cmax, Median) was 21.6 ng/mL and the Tmax (400 mg, Cohort 3, 400 mg QD of Form B, Day 1, read-out: Tmax, Mean) was 6 h. The Tmax (400 mg, Cohort 3, 400 mg QD of Form B, Day 1, read-out: Tmax, Median) was 6 h, the AUC(0-t) (400 mg, Compound I, 400 mg QD of Form B, Cohort 3, Day 29, read-out: AUClast (Mean)) was 278 ng·h/mL and the AUC(0-t) (400 mg, Compound I, 400 mg QD of Form B, Cohort 3, Day 29, read-out: AUClast (Median)) was 348 ng·h/mL. It also gave a Cmax (400 mg, Compound I, 400 mg QD of Form B, Cohort 3, Day 29, read-out: Cmax (Mean)) of 19 ng/mL, a Cmax (400 mg, Compound I, 400 mg QD of Form B, Cohort 3, Day 29, read-out: Cmax (Median)) of 23.5 ng/mL and a Tmax (400 mg, Compound I, 400 mg QD of Form B, Cohort 3, Day 29, read-out: Tmax (Mean)) of 5.33 h. It also gave a Tmax (400 mg, Compound I, 400 mg QD of Form B, Cohort 3, Day 29, read-out: Tmax (Median)) of 6 h, an AUC(0-t) (500 mg, Cohort 4, 500 mg QD of Form B, Day 1, read-out: AUClast, Mean) of 577 ng·h/mL and an AUC(0-t) (500 mg, Cohort 4, 500 mg QD of Form B, Day 1, read-out: AUClast, Median) of 611 ng·h/mL. For the same compound, the Cmax (500 mg, Cohort 4, 500 mg QD of Form B, Day 1, read-out: Cmax, Mean) was 48.9 ng/mL, the Cmax (500 mg, Cohort 4, 500 mg QD of Form B, Day 1, read-out: Cmax, Median) was 49.6 ng/mL and the Tmax (500 mg, Cohort 4, 500 mg QD of Form B, Day 1, read-out: Tmax, Mean) was 5.75 h. The Tmax (500 mg, Cohort 4, 500 mg QD of Form B, Day 1, read-out: Tmax, Median) was 6 h, the AUC(0-t) (500 mg, Compound I, 500 mg QD of Form B, Cohort 4, Day 29, read-out: AUClast (Mean)) was 607 ng·h/mL and the AUC(0-t) (500 mg, Compound I, 500 mg QD of Form B, Cohort 4, Day 29, read-out: AUClast (Median)) was 591 ng·h/mL. It also gave a Cmax (500 mg, Compound I, 500 mg QD of Form B, Cohort 4, Day 29, read-out: Cmax (Mean)) of 43.2 ng/mL, a Cmax (500 mg, Compound I, 500 mg QD of Form B, Cohort 4, Day 29, read-out: Cmax (Median)) of 45 ng/mL and a Tmax (500 mg, Compound I, 500 mg QD of Form B, Cohort 4, Day 29, read-out: Tmax (Mean)) of 5.33 h. For the same compound, the Tmax (500 mg, Compound I, 500 mg QD of Form B, Cohort 4, Day 29, read-out: Tmax (Median)) was 6 h, the AUC(0-t) (650 mg, Cohort 5, 650 mg QD of Form B, Day 1, read-out: AUClast, Mean) was 799 ng·h/mL and the AUC(0-t) (650 mg, Cohort 5, 650 mg QD of Form B, Day 1, read-out: AUClast, Median) was 805 ng·h/mL. For the same compound, the Cmax (650 mg, Cohort 5, 650 mg QD of Form B, Day 1, read-out: Cmax, Mean) was 62.5 ng/mL, the Cmax (650 mg, Cohort 5, 650 mg QD of Form B, Day 1, read-out: Cmax, Median) was 67 ng/mL and the Tmax (650 mg, Cohort 5, 650 mg QD of Form B, Day 1, read-out: Tmax, Mean) was 7.67 h. The Tmax (650 mg, Cohort 5, 650 mg QD of Form B, Day 1, read-out: Tmax, Median) was 8 h, the AUC(0-t) (650 mg, Compound I, 650 mg QD of Form B, Cohort 5, Day 29, read-out: AUClast (Mean)) was 607 ng·h/mL and the AUC(0-t) (650 mg, Compound I, 650 mg QD of Form B, Cohort 5, Day 29, read-out: AUClast (Median)) was 591 ng·h/mL. It also gave a Cmax (650 mg, Compound I, 650 mg QD of Form B, Cohort 5, Day 29, read-out: Cmax (Mean)) of 43.2 ng/mL, a Cmax (650 mg, Compound I, 650 mg QD of Form B, Cohort 5, Day 29, read-out: Cmax (Median)) of 45 ng/mL and a Tmax (650 mg, Compound I, 650 mg QD of Form B, Cohort 5, Day 29, read-out: Tmax (Mean)) of 5.33 h. The Tmax (650 mg, Compound I, 650 mg QD of Form B, Cohort 5, Day 29, read-out: Tmax (Median)) was 6 h.
